Here are results for two molecules from patent US9279813B2, “Ex vivo flow cytometry method and device” (Purdue Research Foundation, priority 2006, dated 2016).

In this test the target is T1, cell surface folate receptors on folate receptor positive M109 cells (Mus musculus, UniProt P35846).
T1 construct: cell surface folate receptors on folate receptor positive M109 cells in culture; endogenous in cells; host or cells: M109 cells
The test can be described thus: Fluorescence measurement of binding to cell surface folate receptors on M109 cells in culture. It is filed as cell-based. The method, then:
TEXAS RED C2-maleimide (Molecular Probes, Eugene, Oreg.) was dissolved in dimethyl sulfoxide (DMSO) (1 mg in 200 μl DMSO). A 1.4 molar equivalent (1 mg) of Folate-Cys was added to the solution and mixed for 4 hours at room temperature. Folate-Cys-TEXAS RED (Folate-TEXAS RED) was purified by reverse-phase HPLC on a C18 column at a flow rate of 1 ml/min. The mobile phase, consisting of 10 mM NH4HCO3 buffer, pH 7.0 (eluent A) and acetonitrile (eluent B), was maintained at a 99:1 A:B ratio for the first five minutes and then changed to 70:30 A:B in a linear gradient over the next 30 minutes followed by a 1:99 A:B linear gradient over the last 15 minutes. Folate-Cys-TEXAS RED eluted as two isomer peaks at 44.5 and 45.8 minutes. The product was confirmed by mass spectroscopy and the biologic activity was confirmed by fluorescence measurement of its binding to cell surface folate receptors on folate receptor positive M109 cells in culture.
ALEXAFLUOR 488 C5-maleimide (Molecular Probes, Eugene, Oreg.) was dissolved in dimethyl sulfoxide (DMSO) (0.5 mg in 50 μl DMSO). A 1.5 molar equivalent (0.57 mg) of Folate-Cys was added to the solution and mixed for 4 hours at room temperature. […] The product was confirmed by mass spectroscopy and the biologic activity was confirmed by fluorescence measurement of its binding to cell surface folate receptors on folate receptor positive M109 cells in culture.

T1 sequence (P35846 25-232): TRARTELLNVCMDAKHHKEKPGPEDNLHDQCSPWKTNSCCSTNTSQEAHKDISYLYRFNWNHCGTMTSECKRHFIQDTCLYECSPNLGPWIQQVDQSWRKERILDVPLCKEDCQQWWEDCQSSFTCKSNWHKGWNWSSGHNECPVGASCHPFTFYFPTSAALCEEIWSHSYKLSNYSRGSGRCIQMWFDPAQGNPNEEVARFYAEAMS

As for `Nc1nc2ncc(CNc3ccc(C(=O)NC(CCC(=O)NC(CSC4CC(=O)N(CCNS(=O)(=O)c5ccc(C6=c7cc8c9c(c7Oc7c6cc6c%10c7CCCN%10CCC6)CCC[N+]=9CCC8)c(S(=O)(=O)O)c5)C4=O)C(=O)O)C(=O)O)cc3)nc2c(=O)[nH]1` (centres unmarked) [Folate-Cys-TEXAS RED], the “biologic activity: binding to cell surface folate receptors” value was “confirmed”.

With `N=c1ccc2c(-c3ccc(C(=O)NCCCCCN4C(=O)CC(SCC(NC(=O)CCC(NC(=O)c5ccc(NCc6cnc7nc(N)[nH]c(=O)c7n6)cc5)C(=O)O)C(=O)O)C4=O)cc3C(=O)O)c3ccc(N)c(S(=O)(=O)O)c3oc-2c1S(=O)(=O)O` (centres unmarked) [Folate-Cys-ALEXAFLUOR 488], the “biologic activity: binding to cell surface folate receptors” value is “confirmed”.
